{
  "source": "patent US11766468B2",
  "about": "“Method of treating prostate cancer with GnRH antagonist” (priority 2012, dated 2023)",
  "experiment": "CS21 safety: treatment-emergent adverse events (MedDRA SOC/PT), crude incidence, also by subgroup",
  "type": "in vivo",
  "conditions": "pooled degarelix",
  "method": "The safety variables for this study were assessed on the following: the frequency and severity of adverse events (AEs); the presence of clinically significant changes in laboratory parameters (clinical chemistry, hematology and urinalysis); changes in electrocardiograms (ECGs) and vital signs; changes detected by physical examination; and body weight.\nAn AE was therefore any unfavorable or unintended sign (including an abnormal laboratory finding), symptom or disease temporally associated with the use of the product, whether or not related to the IMP.\nAn adverse drug reaction (ADR) was defined as an AE evaluated by the investigator as being probably or possibly related to treatment with the IMP.\nAEs were graded according to the National Cancer Institute (NCI) Common Terminology Criteria for Adverse Events (CTCAE). In accordance with the CTCAE criteria, AEs were rated on a five-point scale corresponding to mild, moderate, severe, life-threatening or disabling and death. For those AEs not described in the CTCAE, a separate five-point rating scale was used for rating of the intensity of AEs as follows below:\nSafety parameters were evaluated for all patients included in the ITT analysis set, comprising all 610 randomized patients who received at least one dose of study medication. All safety tables include four columns: the three treatment groups described separately, and the pooled degarelix group.\nAdverse events were regarded as ‘treatment-emergent’ if they occurred in the time interval from initial dosing to end-of-study. Adverse events were considered ‘pre-treatment’ if they occurred between screening and the initial injections of IMP. As described above, all AEs were classified according to MedDRA (version 10.0) system organ class (SOC), sorted alphabetically, and by preferred term (PT), in decreasing frequency of occurrence. Treatment-emergent AEs were expressed in terms of intensity (using NCI CTCAE) and relationship to study drug.\nUsing the results from the summary of clinical efficacy (SCE) and summary of clinical safety (SCS) findings, different patient subgroups were analyzed. Subgroup distinguishers included race (white, black, and other), age (<65 years, […], and >75 years), weight (<70 kg, ≥70−<90 kg, and ≥90 kg), body mass index (BMI) (≤20, >20 to 30, and >30 kg/m^2)), region (North-America, Western Europe, Central and Eastern Europe and Other), and stage of prostate cancer (e.g., localized, locally advanced, and metastatic).",
  "note": "Marks after values point to notes of the source that are not given here. Square brackets hold non-standard residues; d marks the D form. Peptide text beside a SMILES is read from it. * marks the point of attachment. dPhe(4-NHCONH2) = NC(=O)Nc1ccc(C[C@@H](N)C(=O)O)cc1; Dihydroorotyl(S) = O=C1C[C@@H](C(=O)*)NC(=O)N1; dPhe(4-Cl) = N[C@H](Cc1ccc(Cl)cc1)C(=O)O; Phe(4-NH2) = Nc1ccc(C[C@H](N)C(=O)O)cc1; d2Nal = N[C@H](Cc1ccc2ccccc2c1)C(=O)O; Lys(iPr) = CC(C)NCCCC[C@H](N)C(=O)O; d3Pal = N[C@H](Cc1cccnc1)C(=O)O",
  "data": [
    {"smiles": "CC(=O)N[C@H](Cc1ccc2ccccc2c1)C(=O)N[C@H](Cc1ccc(Cl)cc1)C(=O)N[C@H](Cc1cccnc1)C(=O)N[C@@H](CO)C(=O)N[C@@H](Cc1ccc(NC(=O)[C@@H]2CC(=O)NC(=O)N2)cc1)C(=O)N[C@H](Cc1ccc(NC(N)=O)cc1)C(=O)N[C@@H](CC(C)C)C(=O)N[C@@H](CCCCNC(C)C)C(=O)N1CCC[C@H]1C(=O)N[C@H](C)C(N)=O", "note": "[Degarelix, D-Alaninamide, N-acetyl-3-(2-naphthalenyl)-D-alanyl-4-chloro-D-phenylalanyl-3-(3-pyridinyl)-D-alanyl-L-seryl-4-[[[(4S)-hexahydro-2,6-dioxo-4-pyrimidinyl]carbonyl]amino]-L phenylalanyl-4-[(aminocarbonyl)amino]-D-phenylalanyl-L leucyl-N6-(1-methylethyl)-L-lysyl-L-prolyl] (Ac-[d2Nal][dPhe(4-Cl)][d3Pal]S[Phe(4-NH2)](Dihydroorotyl(S))[dPhe(4-NHCONH2)]L[Lys(iPr)]P[dA]-NH2)", "values": [
      {"measurement": "Gastrointestinal disorders, % of patients", "setting": "Age <65", "result": "(9%)*"},
      {"measurement": "Infections and infestations, % of patients", "setting": "Age <65", "result": "(16%)"},
      {"measurement": "Musculoskeletal and connective tissue disorders, % of patients", "setting": "Age <65", "result": "(9%)**"},
      {"measurement": "Renal and urinary disorders, % of patients", "setting": "Age <65", "result": "(10%)*"},
      {"measurement": "Subjects with adverse events, %", "setting": "Age <65", "result": "(75%)"},
      {"measurement": "Urinary retention, % of patients", "setting": "Age <65", "result": "(1%)*"},
      {"measurement": "Depression, % of patients", "setting": "PCA = Localised", "result": "(<1%)*"},
      {"measurement": "Erectile dysfunction, % of patients", "setting": "PCA = Localised", "result": "(<1%)*"},
      {"measurement": "Gynaecomastia, % of patients", "setting": "PCA = Localised", "result": "(<1%)"},
      {"measurement": "Infections and infestations, % of patients", "setting": "PCA = Localised", "result": "(17%)"},
      {"measurement": "Musculoskeletal and connective tissue disorders, % of patients", "setting": "PCA = Localised", "result": "(16%)"},
      {"measurement": "Neoplasms benign, malignant and unspecified, % of patients", "setting": "PCA = Localised", "result": "(3%)"},
      {"measurement": "Oedema peripheral, % of patients", "setting": "PCA = Localised", "result": "(2%)*"},
      {"measurement": "Psychiatric disorders, % of patients", "setting": "PCA = Localised", "result": "(9%)"},
      {"measurement": "Reproductive system and breast disorders, % of patients", "setting": "PCA = Localised", "result": "(4%)"},
      {"measurement": "Subjects with adverse events, %", "setting": "PCA = Localised", "result": "(81%)"},
      {"measurement": "Upper respiratory tract infection, % of patients", "setting": "PCA = Localised", "result": "(3%)"},
      {"measurement": "Urinary tract infection, % of patients", "setting": "PCA = Localised", "result": "(2%)*"},
      {"measurement": "Arthralgia, % of patients", "setting": "PCA = Locally advanced", "result": "(2%)**"},
      {"measurement": "Back pain, % of patients", "setting": "PCA = Locally advanced", "result": "( 5%)"},
      {"measurement": "Cardiac disorders, % of patients", "setting": "PCA = Locally advanced", "result": "(3%)"},
      {"measurement": "Diarrhoea, % of patients", "setting": "PCA = Locally advanced", "result": "(<1%)*"},
      {"measurement": "Dyspnoea, N patients", "setting": "PCA = Locally advanced", "result": 0},
      {"measurement": "Fall, % of patients", "setting": "PCA = Locally advanced", "result": "(<1%)"},
      {"measurement": "Gastrointestinal disorders, % of patients", "setting": "PCA = Locally advanced", "result": "(13%)"},
      {"measurement": "Infections and infestations, % of patients", "setting": "PCA = Locally advanced", "result": "(13%)"},
      {"measurement": "Injury, poisoning and procedural complications, % of patients", "setting": "PCA = Locally advanced", "result": "(2%)**"},
      {"measurement": "Muscle strain, % of patients", "setting": "PCA = Locally advanced", "result": "(<1%)"},
      {"measurement": "Musculoskeletal and connective tissue disorders, % of patients", "setting": "PCA = Locally advanced", "result": "(10%)"},
      {"measurement": "Respiratory, thoracic and mediastinal disorders, % of patients", "setting": "PCA = Locally advanced", "result": "( 7%)"},
      {"measurement": "Subjects with adverse events, %", "setting": "PCA = Locally advanced", "result": "(74%)"},
      {"measurement": "Urinary tract infection, % of patients", "setting": "PCA = Locally advanced", "result": "(<1%)**"},
      {"measurement": "Arthralgia, % of patients", "setting": "PCA = Metastatic", "result": "( 5%)"},
      {"measurement": "Back pain, % of patients", "setting": "PCA = Metastatic", "result": "( 5%)"},
      {"measurement": "Gastrointestinal disorders, % of patients", "setting": "PCA = Metastatic", "result": "(15%)"},
      {"measurement": "Musculoskeletal and connective tissue disorders, % of patients", "setting": "PCA = Metastatic", "result": "(21%)"},
      {"measurement": "Pain in extremity, % of patients", "setting": "PCA = Metastatic", "result": "( 1%)"},
      {"measurement": "Subjects with adverse events, %", "setting": "PCA = Metastatic", "result": "(81%)"},
      {"measurement": "Erectile dysfunction, % of patients", "setting": "Race = Other", "result": "(2%)*"},
      {"measurement": "Infections and infestations, % of patients", "setting": "Race = Other", "result": "(33%)"},
      {"measurement": "Reproductive system and breast disorders, % of patients", "setting": "Race = Other", "result": "(10%)"},
      {"measurement": "Subjects with adverse events, %", "setting": "Race = Other", "result": "(95%)"},
      {"measurement": "Urinary tract infection, % of patients", "setting": "Race = Other", "result": "(5%)*"},
      {"measurement": "Cardiac disorders, % of patients", "setting": "Race = White", "result": "(10%)"},
      {"measurement": "Chest pain, % of patients", "setting": "Race = White", "result": "(<1%)*"},
      {"measurement": "Cystitis noninfective, N patients", "setting": "Race = White", "result": 0},
      {"measurement": "Deep vein thrombosis, N patients", "setting": "Race = White", "result": 0},
      {"measurement": "Infections and infestations, % of patients", "setting": "Race = White", "result": "(19%)"},
      {"measurement": "Investigations, % of patients", "setting": "Race = White", "result": "(26%)"},
      {"measurement": "Musculoskeletal and connective tissue disorders, % of patients", "setting": "Race = White", "result": "(15%)**"},
      {"measurement": "Musculoskeletal stiffness, N patients", "setting": "Race = White", "result": 0},
      {"measurement": "Myocardial ischaemia, % of patients", "setting": "Race = White", "result": "(<1%)*"},
      {"measurement": "Oedema peripheral, % of patients", "setting": "Race = White", "result": "(1%)*"},
      {"measurement": "Orthostatic hypotension, N patients", "setting": "Race = White", "result": 0},
      {"measurement": "Renal and urinary disorders, % of patients", "setting": "Race = White", "result": "(14%)"},
      {"measurement": "Subjects with adverse events, %", "setting": "Race = White", "result": "(79%)"},
      {"measurement": "Upper respiratory tract infection, % of patients", "setting": "Race = White", "result": "(<1%)*"},
      {"measurement": "Urinary retention, % of patients", "setting": "Race = White", "result": "( 1%)*"},
      {"measurement": "Vascular disorders, % of patients", "setting": "Race = White", "result": "(31%)"},
      {"measurement": "Cardiac disorders, % of patients", "setting": "Weight 70-<90 kg", "result": "( 5%)*"},
      {"measurement": "Erectile dysfunction, % of patients", "setting": "Weight 70-<90 kg", "result": "(<1%)*"},
      {"measurement": "Nervous system disorders, % of patients", "setting": "Weight 70-<90 kg", "result": "(12%)"},
      {"measurement": "Reproductive system and breast disorders, % of patients", "setting": "Weight 70-<90 kg", "result": "( 5%)"},
      {"measurement": "Subjects with adverse events, %", "setting": "Weight 70-<90 kg", "result": "(81%)"},
      {"measurement": "Arthralgia, % of patients", "setting": "Weight <70 kg", "result": "( 3%)**"},
      {"measurement": "Musculoskeletal and connective tissue disorders, % of patients", "setting": "Weight <70 kg", "result": "(17%)*"},
      {"measurement": "Pelvic pain, N patients", "setting": "Weight <70 kg", "result": 0},
      {"measurement": "Reproductive system and breast disorders, % of patients", "setting": "Weight <70 kg", "result": "(4%)*"},
      {"measurement": "Subjects with adverse events, %", "setting": "Weight <70 kg", "result": "(78%)"},
      {"measurement": "Arthralgia, % of patients", "setting": "Weight >=90 kg", "result": "( 5%)"},
      {"measurement": "Back pain, % of patients", "setting": "Weight >=90 kg", "result": "( 5%)*"},
      {"measurement": "Infections and infestations, % of patients", "setting": "Weight >=90 kg", "result": "(26%)"},
      {"measurement": "Musculoskeletal and connective tissue disorders, % of patients", "setting": "Weight >=90 kg", "result": "(15%)*"},
      {"measurement": "Neoplasms benign, malignant and unspecified, % of patients", "setting": "Weight >=90 kg", "result": "(1%)*"},
      {"measurement": "Subjects with adverse events, %", "setting": "Weight >=90 kg", "result": "(84%)"},
      {"measurement": "Urinary tract infection, % of patients", "setting": "Weight >=90 kg", "result": "( 3%)*"}
    ]}
  ]
}
